Source: patent US20260000754A1, “NANOPARTICLES AS CARRIER-SYSTEM FOR ADJUVANTS/ANTIGENS” (UNIVERSITAT HEIDELBERG, priority 2020, published 2026)

Legend:
[1] = Solubility enhancement of epitopes (solubility in water); type: physicochemical
Text: On the N-terminal site of the enzymatically cleaved linker the addition of polar amino acids can be used to enhance the solubility of the whole peptide. […] The use in a human vaccine is difficult. In animal studies researchers dissolve it in DMSO. The solubility after e.g. subcutaneous injection is questionable: dilution might result in precipitation of large peptide particles, which is very unfavorable for transport to lymphnodes.
According to the invention the epitope […] was enlarged on the N-terminal site with the enzymatic cleavable linker Val-Cit and the cationic solubilizing sequence Lys-Lys-Lys, leading to • KKKV-Cit-[…].
After endosomal and/or cytosolic cleavage by cathepsin B the native HPV 16 E782-90 is released. Also the remaining KKKV-Cit is not immunogenic, due to the fact it's too short to be presented at any MHC I or MHC II.

DC2.4 cells = assay: MHC I cross presentation of OVA257-264 in DC2.4 cells; type: cell-based, murine; conditions: 6 h incubation with 5 μM solution, with or without SiO2—PO3H2; 25-D1.16 antibody, flow cytometry
Method: In the experiment, the OVA257-264 presentation efficacy after incubation of 5·10^4 DC2.4 cells with 5 μM solutions of full length protein (OVA=Ovalbumin), N- and C-terminal elongated epitope (OVA247-264A5K, a so called synthetic long peptide (SLP)), N-terminal elongated epitope with a Cathepsin B cleavable sequence (exemplary shown RW-Cit-OVA257-264) or native epitope (OVA 257-264), each with and without nanoparticles, was compared. […] After an incubation time of 6 h, the test substances are removed by washing with phosphate-buffered saline (PBS). In the next step, the cells were incubated with CD16/CD32 antibody in order to block the non-specific binding of the detection antibody to the Fc (Fragment, crystallizable) receptor of the cells. After incubation with 25-D1.16 antibody, the amount of cross-presented OVA257-264 was quantified by flow cytometry.
FIG. 16: OVA257-264 MHC I presentation after 6 h incubation of H2-Kb positive cells with 5 μM solution of native or elongated OVA257-264 epitope or full length OVA protein with or without SiO2—PO3H2. Quantification was carried out by flow cytometry after labeling with 25-D1.16 detection antibody.

[2] = Stability measurement in human serum (HEK-Blue hTLR3 cell readout); type: in vitro ADME; conditions: 20% human serum, 37° C., 1 μg poly(I:C)/mL
[3] = Stability measurement in bovine serum (HEK-Blue hTLR3 cell readout); type: in vitro ADME; conditions: 60 minutes at 37° C., 5, 10 and 20% FBS
Text: HEK-Blue™ hTLR3 Cells are designed to measure the stimulation of […] monitoring the activation of NF-kB. HEK-Blue™hTLR3Cells were obtained by co-transfection of the hTLR3 gene and an optimized secreted embryonic alkaline phosphatase (SEAP) reporter gene placed under the control of an NF-kB and AP-1-inducible promoter intoHEK293 cells. Stimulation with a TLR3 ligand activates NF-kB and AP-1 which induce the production of SEAP. Levels of SEAP can be easily determined with HEK-Blue™ Detection, a cell culture medium that allows for real-time detection of SEAP. The hydrolysis of the substrate by SEAP produces a purple/blue color that can be easily detected with the naked eye or measured with a 96 well plate reader (Invivogen).
The serum was used in concentrations of 5, 10 and 20%. A serum concentration of 20% corresponds quite well to the composition of peripheral lymph.
The poly(I:C) payload at SiO2—Arg in this case was about 2.5%. After exposure to FBS 20 μL of the medium were taken and added to 180 μL HEK-Blue™ hTLR3 cells in HEK-Blue™ Detection medium. This mixture was incubated for 13 hours at 37° C. and the plate was analyzed in a 96 well plate reader (Tecan Reader, Type: Infinite M200 Pro).

| Compound | solubility in water [1] | OVA257-264 MHC I presentation (DC2.4 cells) | also measured |
| --- | --- | --- | --- |
| CC[C@H](C)[C@H](NC(=O)CNC(=O)[C@H](CC(C)C)NC(=O)[C@@H](NC(=O)CNC(=O)[C@H](CCSC)NC(=O)[C@H](CC(C)C)NC(=O)[C@H](CC(C)C)NC(=O)[C@H](CCCNC(N)=O)NC(=O)[C@@H](NC(=O)[C@H](CCCCN)NC(=O)[C@H](CCCCN)NC(=O)[C@@H](N)CCCCN)C(C)C)[C@@H](C)O)C(=O)N[C@H](C(=O)O)C(C)C | excellent |  |  |
| CC[C@H](C)[C@H](NC(=O)CNC(=O)[C@H](CC(C)C)NC(=O)[C@@H](NC(=O)CNC(=O)[C@H](CCSC)NC(=O)[C@H](CC(C)C)NC(=O)[C@@H](N)CC(C)C)[C@@H](C)O)C(=O)N[C@H](C(=O)O)C(C)C | very bad |  |  |
| RW-Cit-OVA257-264 |  | presented in significant amounts |  |
| SIINFEKL [OVA257-264] |  | presented in significant amounts |  |
| polyinosinic: polycytidylic acid [poly(I:C)] |  |  | % of initial concentration after 60 minutes [2]: 18%; calculated half-life [2]: 24.2 min; stability in fetal bovine serum [3]: clear signs of degradation at higher serum concentrations |
